Counter-ions that a name gives are not always drawn. Like-named read-outs stand apart in the source and are kept apart here. Bridge positions count the residues as written; N and C are the ends. Peptide text beside a SMILES is read from it.
Experiments:
trypsin = tested on: trypsin; set-up: method as in PMID 143965; conditions: cited from earlier work
plasmin [1] = tested on: plasmin; set-up: method as in PMID 143965; conditions: cited from earlier work
plasma kallikrein = tested on: plasma kallikrein; set-up: method as in PMID 143965; conditions: cited from earlier work
thrombin = tested on: thrombin; set-up: method as in PMID 143965; conditions: cited from earlier work
KLK5 [2] = target: T1, KLK5 (Homo sapiens, UniProt Q9Y337); assay: Protease activity assay: inhibition of recombinant KLK5 (Boc-VPR-AMC substrate); format: biochemical; conditions: for selectivity for KLK5 against select KLKs in skin: KLK5 versus other skin KLKs; for IC50: n = 3, 10 nM KLK5, Boc-VPR-AMC 100 µM, PBS pH 8.0, read-out: IC50 (n = 3)/nM for KLKs: KLK5
T1 construct: purchased R&D Systems 1108-SE
T1 sequence (Q9Y337 23-293): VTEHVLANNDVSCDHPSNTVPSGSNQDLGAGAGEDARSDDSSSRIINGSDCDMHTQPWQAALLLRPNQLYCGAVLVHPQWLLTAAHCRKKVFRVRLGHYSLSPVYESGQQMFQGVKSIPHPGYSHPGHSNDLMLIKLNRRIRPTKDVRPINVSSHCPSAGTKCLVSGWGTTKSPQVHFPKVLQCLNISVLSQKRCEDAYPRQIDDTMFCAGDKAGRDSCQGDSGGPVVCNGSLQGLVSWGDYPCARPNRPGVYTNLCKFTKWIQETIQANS
Protocol: Inhibitory activity against KLK5 was evaluated using the fluorogenic substrate Boc-VPR-AMC for KLK5 (Table ). […] The P1–P1′ reactive site (Arg5 to Ser6) is critical for inhibitor binding, with the P1′ position contributing up to 50% of the total association energy. , The conserved serine at P1′ in Bowman-Birk inhibitors (BBIs) is essential for function. […] Preservation of serine in the P1′ position restored inhibitory activity seen in 5 and 6. Preserving the native serine restored efficacy to the nanomolar range (5: 31 ± 7 nM; 6: 114 ± 11 nM).
Methods for biological experiment
SFTI analogues were created by individual amino acid substitutions in PYMOL (Python Molecular Graphics System) using the existing solution NMR structure of native SFTI - 1 (1JBL) found in the RCSB (Research Collaboratory for Structural Bioinformatics) database. Residues of 2 were mutated as follows: L5R, I10H, and F12W with conserved SFTI-1 backbone structure. Other SFTI based analogues were further modified using PYMOL. Currently, there are no SFTI-1 and Kallikrein 5 co-crystal structures found in the RCSB database. Superimposing the existing crystal structure of SFTI-1 and Trypsin complex (4XOJ) with Kallikrein 5 crystal structure (2PSX) was performed with PYMOL. Ab-initio docking between KLK5 and 2 were performed with HADDOCK 2.4 1, 2, with binding active site parameter set to Arg2, Cys3, Thr4, Arg5, Ser6 for 2 and Ser195, His57, and Asp102 for KLK5 catalytic triad. PRODIGY 3-5, set at 25 °C, was used to predict dissociation constant and binding interactions of docked clusters. Structural visualization and alignment were performed with PYMOL 6, and comparative sequence analysis was performed with MEGA11 7.
A fluorescence spectrometer using SpectraMax® i3x plate reader (Molecular Devices, United States) was used to measure the relative fluorescence unit (RFU) on a 96-well black microplate (Grenier Bio-one, cat no. 655074). The wavelengths were set to 360/460 nm (excitation/emission) for the substrate Boc-VPR-AMC (Bachem AG, cat no. 4003460) and 320/405nm for the substrate Mca-RPKPVE-Nval-WRK(Dnp)-NH2 Fluorogenic MMP Substrate (R&D Systems Biotechne, cat no.ES002). The Boc-VPR-AMC stock solution was prepared by dissolving the solid form in dimethyl sulfoxide to 100 mM. Mca-RPKPVE-Nval-WRK(Dnp)-NH2 fluorogenic MMP Substrate is supplied as stock solution at 10.0 mg/mL in dimethyl sulfoxide. Boc-VPR-AMC was used as a substrate for KLK5, 8 and 14. Mca-RPKPVE-Nval-WRK(Dnp)-NH2 was used as a substrate for KLK7. The ligand-only solution serves as a negative control (minimum RFU, 100% inhibition), and enzyme-only was served as positive (maximum RFU, 0% inhibition). The activities of proteases were measured and readout against the standard curve made in serial dilutions of tested recombinant KLKs, ranging from 0nM to 60nM. Each assay was done in triplicates and repeated at least for three times […]
Assessment of analogue mediated inhibition of KLK5, KLK7, KLK8, and KLK14 […]
Recombinant KLK5 (R&D Systems, cat no. 1108-SE) was diluted to a final concentration of 10 nM in 1X PBS (pH 8.0). KLK5 was pre -incubated on ice for 1 hour with serial dilutions of SFTI-derived analogues to assess inhibitory activity. After incubation, 20 µL of each mixture was transferred to we lls of a 96-well microplate in triplicates. The enzymatic reaction was initiated by adding 100 µL of Boc -VPR-AMC substrate (final concentration 100 µM) to each well. Fluorescence (RFU) was measured using a SpectraMax® i3x plate reader with chamber temperature maintained at 37°C. Readings were started at 0 minutes (baseline) and another […]
Recombinant KLK7 (R&D Systems , cat no. 2624-SE) and KLK14 (R&D Systems, cat no. 2664-SE) were activated by adding 1 mM CaCl ₂ 0.05% v/v Brij-35 (Sigma, cat no. […]
incubated at 37°C for 1 hour. Reactions were stopped by adding EDTA to a final concentration of 50 mM (Sigma, cat no. EDS-100G) KLK8 (catalytic domain only; R&D Systems, cat no. 2025-SE-010) was activated separately with 11 nM lysyl […]

KLK7 [3] = target: T2, KLK7 (Homo sapiens, UniProt P49862); assay: Protease activity assay: inhibition of recombinant KLK7 (Mca-RPKPVE-Nval-WRK(Dnp)-NH2 substrate); format: biochemical; set-up: purchased R&D Systems 2624-SE; conditions: n = 3; 100 nM KLK7, 37°C, 20 hours; read-out: IC50 (n = 3)/nM for KLKs: KLK7
Source text: using the following equation: […]
(1 picture or pasted object on this page, not shown here)

plasmin [4] = target: plasmin; set-up: method as in PMID 7543841; conditions: read-out: Ki against trypsin-like plasmin; cited from earlier work
LEKTI-2 (Homo sapiens) = LEKTI-2 (Homo sapiens) (UniProt Q5DT21); conditions: cited from earlier work
[5] = target: Kallikrein-related peptidase 5 (KLK5) (UniProt Q9Y337); assay: enzyme inhibition assay (fluorogenic substrate); inhibition of KLK5 activity by the peptide, fluorogenic substrate Boc-VPR-AMC, n = 3; conditions in the Supporting Information
KLK14 [6] = target: T3, KLK14 (UniProt Q9P0G3); assay: enzyme inhibition assay (fluorogenic substrate); selectivity: inhibition of KLK7, KLK8 or KLK14 activity by the peptide, n = 3; substrates and conditions in the Supporting Information
T3 sequence (Q9P0G3 41-267, species assumed, looked up): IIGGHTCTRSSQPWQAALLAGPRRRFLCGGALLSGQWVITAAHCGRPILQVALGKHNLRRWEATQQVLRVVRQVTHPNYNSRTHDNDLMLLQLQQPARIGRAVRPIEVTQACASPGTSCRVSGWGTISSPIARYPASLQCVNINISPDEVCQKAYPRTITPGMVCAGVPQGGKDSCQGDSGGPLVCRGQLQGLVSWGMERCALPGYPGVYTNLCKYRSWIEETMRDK

KLK8 [7] = target: T4, KLK8 (UniProt O60259 33-260); assay: as above
T4 construct: Kallikrein 8 (KLK8); construct and source are in the Supporting Information
T4 sequence (looked up): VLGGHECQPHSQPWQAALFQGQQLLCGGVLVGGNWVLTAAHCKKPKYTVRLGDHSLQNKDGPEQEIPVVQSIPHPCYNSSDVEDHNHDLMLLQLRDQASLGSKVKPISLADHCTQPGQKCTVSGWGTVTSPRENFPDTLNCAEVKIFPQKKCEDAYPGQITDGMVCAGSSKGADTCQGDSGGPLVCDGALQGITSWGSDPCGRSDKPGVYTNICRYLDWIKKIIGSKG

KLK5 [8] = target: T1, KLK5; set-up: method as in Chen et al. (2016); conditions: earlier work of the authors; ref Chen et al. (2016); read-out: IC50 (n = 3)/nM for KLKs: KLK5; cited from earlier work
KLK8 [9] = target: T5, KLK8 (Homo sapiens, UniProt O60259); set-up: method as in Chen et al. (2016); conditions: ref Chen et al. (2016); read-out: IC50 (n = 3)/nM for KLKs: KLK8; cited from earlier work
T5 construct: purchased R&D Systems 2025-SE-010
T5 sequence (O60259 33-260): T4 sequence (looked up)

aprotinin (Bos taurus) = aprotinin (Bos taurus) (UniProt P00974); conditions: cited from earlier work
KLK14 [10] = target: T6, KLK14 (Homo sapiens, UniProt Q9P0G3); conditions: prior findings, reference not given; cited from earlier work
T6 construct: purchased R&D Systems 2664-SE
T6 sequence (Q9P0G3 25-251): T3 sequence (Q9P0G3 41-267, species assumed, looked up)

KLK7 [11] = target: T2, KLK7; set-up: purchased R&D Systems 2624-SE; conditions: prior findings, reference not given; cited from earlier work
Target sequence in this assay (P49862 30-253): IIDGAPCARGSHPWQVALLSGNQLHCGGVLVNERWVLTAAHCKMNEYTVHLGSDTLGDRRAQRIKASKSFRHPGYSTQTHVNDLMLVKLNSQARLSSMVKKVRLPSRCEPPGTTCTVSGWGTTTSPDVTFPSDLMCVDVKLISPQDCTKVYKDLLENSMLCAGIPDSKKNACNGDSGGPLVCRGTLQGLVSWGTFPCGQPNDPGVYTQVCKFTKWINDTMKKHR

With `CCOC(=O)c1ccc(OC(=O)CCCCCN=C(N)N)cc1` [Gabexate mesylate] as the molecule, how does the IC50 (trypsin) read?
Its IC50 is 9400 nM.

And the IC50 (plasmin [1])?
The IC50 was 30000 nM.

What about the IC50 (plasma kallikrein) of the same molecule?
The IC50 was 41000 nM.

And the IC50 (thrombin)?
The IC50 was 110000 nM.

Which “selectivity for KLK5 against select KLKs in skin” value (KLK5 [2]) does the source give for `C[C@@H](O)[C@@H]1NC(=O)[C@@H]2CSSC[C@H](NC(=O)[C@H](CCC(=O)O)NC(=O)[C@@H]3CCCN3C(=O)[C@@H]3CCCN3C(=O)[C@H](CO)NC(=O)[C@H](CO)NC(=O)[C@H](CCCNC(=N)N)NC1=O)C(=O)N[C@@H](Cc1c[nH]c3ccccc13)C(=O)N1CCC[C@H]1C(=O)N[C@@H](CC(N)=O)C(=O)NCC(=O)N[C@@H](CO)C(=O)N2` [compound 9] (cyclo(GSCTRSSPPECWPN); disulfide 3-11) here?
Its value is 4 fold.

And the IC50 (KLK5 [2])?
The IC50 was 54 ± 6 nM.

And the IC50 (KLK7 [3])?
The IC50 was 165 ± 12 nM.

What does the source list for `C[C@@H](O)[C@@H]1NC(=O)[C@@H]2CSSC[C@H](NC(=O)[C@H](CCC(=O)O)NC(=O)[C@@H]3CCCN3C(=O)[C@@H]3CCCN3C(=O)[C@H](CO)NC(=O)[C@H](CO)NC(=O)[C@H](CCCNC(=N)N)NC1=O)C(=O)N[C@@H](Cc1c[nH]c3ccccc13)C(=O)N1CCC[C@H]1C(=O)N[C@@H](CC(N)=O)C(=O)NCC(=O)N[C@@H](Cc1ccc(O)cc1)C(=O)N2` [compound 10] (cyclo(GYCTRSSPPECWPN); disulfide 3-11)?
selectivity for KLK5 against select KLKs in skin (KLK5 [2]): 4 fold; IC50 (KLK5 [2]): 56 ± 7 nM; IC50 (KLK7 [3]): 240 ± 14 nM

Which Ki (plasmin [4]) does the source give for Aprotinin here?
Its Ki is 0.07 nM.

For KLK5 (from UniProt Q9Y337), which Ki (LEKTI-2 (Homo sapiens)) is on record?
Its Ki is 65 nM.

For “Sunflower trypsin inhibitor-1 (SFTI-1) 1 (peptide)”, which IC50 [5] is on record?
The IC50 was 230 nM.

And the IC50 (KLK14 [6])?
Its IC50 is 30 nM.

And the IC50 (KLK8 [7])?
The IC50 was 1290 nM.

For “Sunflower trypsin inhibitor-1 [compound 1]”, which IC50 (KLK5 [8]) is on record?
Its IC50 is 230 ± 3 nM.

What about the IC50 (KLK8 [9]) of the same molecule?
The IC50 was 1290 ± 51 nM.

For plasmin (from UniProt P00747), which Ki (aprotinin (Bos taurus)) is on record?
The Ki was 0.07 nM.

B1: LEKTI-2: LEKTI-2, encoded by SPINK9, selective binding to KLK5 (protein, UniProt Q5DT21 20-86, looked up)
Serine protease inhibitor …: IECAKQTKQMVDCSHYKKLPPGQQRFCHHMYDPICGSDGKTYKNDCFFCSKVKKTDGTLKFVHFGKC
For B1, which “inhibition of KLK14” value (KLK14 [10]) is on record?
Its value is “without potently inhibiting”.

What about the “inhibition of KLK7” value (KLK7 [11]) of the same molecule?
Its value is “without potently inhibiting”.

Reference: PMC12670400, “LEKTI-Grafted Sunflower Trypsin Inhibitor: A Potential Therapeutic for Skin Diseases” (Journal of Medicinal Chemistry, 2025)
